Data taken from US10959984B2, “Methods for treating cancer with RORγ inhibitors” (THE REGENTS OF THE UNIVERSITY OF CALIFORNIA, priority 2015, dated 2021).
pIC50: −log10 of the molar value. “Also recorded” adds a separate entry of the source.

Key:
CRPC-VCaP xenografts = experiment: Castration-resistant VCaP (CRPC-VCaP) xenograft tumor growth; assay type: in vivo; conditions: castrated mice, ENZ alone, 10 mg/kg oral
Protocol: (§1) Four-week-old male SCID C.B17 mice (for C4-2B and VCaP) or BALB/c nu/nu athymic mice (for 22Rv11 and PC-3) were purchased from Harlan Inc. For establishing tumors, 2×10^6 cells were suspended in total of 100 μL PBS/Matrigel (1:1) and implanted subcutaneously into the dorsal flank on both sides of the mice. Animal group size of six or more was estimated to have a high statistic power, based on power calculation (http://www.biomath.info/power/) and previous studies involving the same xenograft models^34,68. When the tumor volume was approximately 80 mm^3, the mice were randomized and then treated intraperitoneally (i.p.) with 100 μl of either vehicle or RORγ antagonists SR2211, XY011/8k (in a formulation of 15% Cremophor EL, Calbiochem, 82.5% PBS, and 2.5% DMSO) for five times per week. Tumor growth was monitored by calipers with volume calculated using the equation: (π/6 (length×width2)). Body weight during the course of the study was also monitored. At the end of the studies mice were killed and tumors were dissected and weighed. Additionally, prostate, seminal vesicle, testis, kidney, heart, lung, liver, epididymal fat pad and spleen were harvested and weighed. To assess the effect of combining RORγ antagonists and ENZ on the growth of castrated-resistant VCaP xenografts (CRPC-VCaP), first, SCID C.B17 mice were injected with VCaP cells as above to establish the tumors. […]

AR = experiment: ARE reporter gene assay (5xARE-tk-luc) in 22Rv1 cells; assay type: cell-based, human
Protocol: Transient transfection and reporter gene assays were performed as previously described^49 with the following modifications. ARE reporter gene assays were performed by transfecting 22Rv1 cells with 5×ARE-tk-luc, pcDNA3.1-hAR and pCMV-β-gal for normalization. For transfection with constructs omitted for specific gene expression, corresponding empty vectors were used to ensure equal amount of total DNA used. Briefly, 22Rv1 cells seeded in 96-well plates in hormone-deprived medium supplemented with 10% cds-FBS (Hyclone) were transfected with lipofectamine 2000 (Life technology, Carlsbad, Calif., USA) and the indicated plasmid DNA. Cells were then treated at 12 hours after transfection with 3 nm R1881, indicated concentrations of RORγ antagonists or ENZ for another 24 hours before harvested for β-gal and luciferase assays. For RORE reporter gene assays, 4×AR-RORE-tk-luc was constructed by inserting four copies of the newly identified AR-RORE TTCTGGGTCA (SEQ ID NO: 1) into tk-luciferase reporter vector. AR-RORE mutant form (AR-RORE mut) contains sequences mutated from TTCTGGGTCA (SEQ ID NO: 1) to TTCTGAACGA (SEQ ID NO: 2). […] The luciferase and β-galactosidase were then analyzed with a Luciferase Assay Substrate (Promega) and Luminescent β-galactosidase Detection Kit II (Clontech). […]

[1] = mouse, in vivo
Protocol: as §1

22Rv1 xenografts = experiment: 22Rv1 xenograft tumor growth; assay type: in vivo, mice; conditions: nude mice; SR2211 5 mg/kg i.p., 8k/E11 10 and 20 mg/kg i.p., five times per week (FIG. 3A)
Protocol: Four-week-old male SCID C.B17 mice (for C4-2B and VCaP) or BALB/c nu/nu athymic mice (for 22Rv11 and PC-3) were purchased from Harlan Inc. For establishing tumors, 2×10^6 cells were suspended in total of 100 μL PBS/Matrigel (1:1) and implanted subcutaneously into the dorsal flank on both sides of the mice. Animal group size of six or more was estimated to have a high statistic power, based on power calculation (http://www.biomath.info/power/) and previous studies involving the same xenograft models^34,68. When the tumor volume was approximately 80 mm^3, the mice were randomized and then treated intraperitoneally (i.p.) with 100 μl of either vehicle or RORγ antagonists SR2211, XY011/8k (in a formulation of 15% Cremophor EL, Calbiochem, 82.5% PBS, and 2.5% DMSO) for five times per week. Tumor growth was monitored by calipers with volume calculated using the equation: (π/6 (length×width2)). Body weight during the course of the study was also monitored. At the end of the studies mice were killed and tumors were dissected and weighed. Additionally, prostate, seminal vesicle, testis, kidney, heart, lung, liver, epididymal fat pad and spleen were harvested and weighed. To assess the effect of combining RORγ antagonists and ENZ on the growth of castrated-resistant VCaP xenografts (CRPC-VCaP), first, SCID C.B17 mice were injected with VCaP cells as above to establish the tumors. Then, mice bearing tumors of approximately 180 mm^3 were surgically castrated. They were then observed for tumor regression. Once tumors grew back to the pre-castration size, mice were randomized and treated with vehicle, 5 mg kg^−1 SR2211, 10 mg […] ENZ or a combination of 5 mg kg^−1 SR2211 and 10 mg kg^−1 ENZ. ENZ was given by oral gavage as previously described^68 and SR2211 was administered i.p as above. Mice were excluded from the study if bearing no tumor or tumor with size twice larger or smaller than the mean, at the time of randomization.

lung cancer cells = experiment: CellTiter-GLO viability, lung cancer cells; assay type: cell-based, human; conditions: NSCLC cells: KRAS mutant (A427, Calu1, A549, H23, H358), BRAF mutant (H1666), EGFR mutant (HCC827, PC-9), Erlotinib-resistant (A427, H1975); 4 days
Protocol: (§2) For cell viability, cells were seeded in 96-well plates at 1500-2500 cells per well (optimum density for growth) in a total volume of 100 μl media. Serially diluted compounds in […] of media were added to the cells 12 hours later. After 4 days of incubation, Cell-Titer GLO reagents (Promega) were added and luminescence was measured on GLOMAX microplate luminometer (Promega), according to the manufacturer's instructions. All experimental points were set up as sextuplicate as biological replication and the entire experiments were repeated three times. The data are presented as percentage of viable cells with vehicle treated cells set as 100. The estimated in vitro IC50 values were calculated using GraphPad Prism 6 software.
(§3) Using a CellTiter-GLO assay, the viability of cells of different cancer types was measured after treatment with different concentrations of RORγ small molecule inhibitors for 4 days.

[2] = test system: OVCAR420, T24, ECC1, HepG2, Hep3B, T98G, SUDHL4, SUDHL6, HCT116 and docetaxel-resistant C4-2B cells; experiment: CellTiter-GLO viability, cells of other cancer types; assay type: cell-based, human; conditions: ovarian OVCAR420, bladder T24, endometrial ECC1, liver HepG2 and Hep3B, glioblastoma T98G, DLBCL SUDHL4 and SUDHL6, colon HCT116, docetaxel-resistant C4-2B; 4 days
Protocol: as §2, §3

breast cancer cells = experiment: CellTiter-GLO viability, breast cancer cells; assay type: cell-based, human; conditions: cells having different major molecular features, 4 days
Protocol: as §2, §3

[3] = test system: TNBC cells including MDA-MB468, MDA-MB231, BT20, SUM149, and HCC1937; experiment: CellTiter-GLO viability, triple-negative breast cancer cells; assay type: cell-based; conditions: Homo sapiens, 96 h, treated for 4 days
Protocol: as §2, §3

[4] = test system: HER2-positive cells, such as SKBR3 and HCC1954; experiment: CellTiter-GLO viability, HER2-positive breast cancer cells; assay type: cell-based, human; conditions: SKBR3 and HCC1954, 4 days
Protocol: as §2, §3

[5] = test system: ER-positive cells, such as MCF-7 and T47D; experiment: CellTiter-GLO viability, ER-positive breast cancer cells; assay type: cell-based; conditions: Homo sapiens, 96 h; ER-positive cells MCF-7 and T47D, treated for 4 days
Protocol: as §2, §3

MCF-7-TamR cell line = experiment: Growth of tamoxifen-resistant breast cancer cells; assay type: cell-based, human; conditions: MCF-7 TamR cells, in combination with tamoxifen
Protocol: as §3

Compound	CRPC tumor growth (CRPC-VCaP xenografts)	response of multimerized ARE-driven reporter (AR)	tolerability based on weight of whole body and vital organs, and general behaviors [1]	growth of xenograft tumors (22Rv1 xenografts)	growth and survival of lung cancer cells (lung cancer cells)	growth and survival of cancer cells of other types [2]	growth and survival of breast cancer cells (breast cancer cells)	pIC50 [3]	inhibition of HER2-positive cells [4]	pIC50 [5]	sensitization of tamoxifen-resistant breast cancer cells to tamoxifen (MCF-7-TamR cell line)
CNC(=O)c1ccc(N2C(=S)N(c3ccc(C#N)c(C(F)(F)F)c3)C(=O)C2(C)C)cc1F [ENZ, enzalutamide]	only marginally effective	repressed	well tolerated	did not show any significant inhibitory effect	–	–	–	–	–	–	–
CCS(=O)(=O)c1ccc(CC(=O)Nc2cc(Cl)c(-c3ccccc3OC(F)(F)F)c(Cl)c2)cc1 [GSK805, N-(3,5-Dichloro-4-(2-(trifluoromethoxy)phenyl)phenyl)-2-(4-ethylsulfonylphenyl)acetamide]	–	–	–	–	strongly inhibited the growth and survival of lung cancer cells	significant inhibition of the growth and survival	strongly inhibited the growth and survival of breast cancer cells	5.00 to 6.00	relatively strong inhibition	< 5.00	able to sensitize tamoxifen-resistant breast cancer cells to tamoxifen; also recorded: sensitized MCF-7 TamR cells to tamoxifen
